The test deals with carrageenan-induced thermal hyperalgesia. The test can be described thus: Carrageenan rat footpad thermal hyperalgesia test (Hargreaves test). Type of test: in vivo.

Source text: The aim of this experiment was to characterize the antinociceptive and anti-inflammatory effects of gabapentin administered in combination with a prototypic NSAID in the rat. […] This assay utilizes an extract of seaweed (carrageenan) that, when injected into the footpad of test animals, causes a sterile inflammation, thereby lowering the pain threshold.
Male Sprague-Dawley rats (200-250 g, Sasco Laboratories) were used. Rats were group housed 5/cage on a 12-hour light:dark cycle with free access to food and water. Rats received only one dose of a drug or drug combination. All drugs were administered orally by gavage.
Dose-effect curves were first determined for (1) gabapentin by itself and (2) a prototypic NSAID (e.g., naproxen) by itself. The ED50 value and 95% confidence limits of each agent was determined, as was the time to peak effect. […]
Carrageenan-induced thermal hyperalpesia: Rats were acclimated to a testing chamber whose glass floor was maintained at 25° C. Thirty minutes later, a high intensity beam of light was focused through the glass on the ventral surface of each hindpaw, and the latency to reflex withdrawal of the paw from the light beam was measured to the nearest 0.1 second. […] Response latencies for the ipsilateral and contralateral hindpaws were then re-determined 15, 30, 45, 60, 90 and 120 minutes later. […]
Data were expressed as the mean ±SEM. […]

With `COc1ccc2cc([C@H](C)C(=O)O)ccc2c1` [Naproxen sodium, naproxen sodium], for the setting “PO, gabapentin 3-100 mg/kg, naproxen sodium 0.3-30 mg/kg, combinations in fixed ratio”, the anti-hyperalgesic action result is recorded as “caused anti-hyperalgesic actions”. Under “Rattus norvegicus, 2 h, single drug, oral gavage, male Sprague-Dawley rats, data 120 min after dosing, 95% confidence limits in parentheses”, the ED50 – broadly, the dose at which the effect has come halfway, by size or by number of responders – was found to be 0.36 mg/kg.

Values taken from US6451857B1, “Analgesic compositions comprising anti-epileptic compounds and methods of using same” (Warner-Lambert Company, priority 1999, dated 2002).
